The results in this text go back to ChEMBL document CHEMBL4619782, “The Structural Basis for Nonsteroidal Anti-Inflammatory Drug Inhibition of Human Dihydrofolate Reductase” (J Med Chem, 2020).

The target in one experiment is T1, Dihydrofolate reductase (Homo sapiens, UniProt P00374).
T1 sequence (P00374 whole entry): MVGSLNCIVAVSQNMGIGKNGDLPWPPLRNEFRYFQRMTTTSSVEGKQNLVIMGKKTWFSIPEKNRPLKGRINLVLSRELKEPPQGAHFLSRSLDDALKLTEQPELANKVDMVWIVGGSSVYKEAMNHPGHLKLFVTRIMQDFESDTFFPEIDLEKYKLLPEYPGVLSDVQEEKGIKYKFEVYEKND
Description: Inhibition of human DHFR in presence of DHF and NADPH by UV-vis spectrometry by Lineweaver-Burk plot analysis.

The nature of experiment [1]: Inhibition of Escherichia coli DHFR.
Experiment [2] in a line: Inhibition of Lactobacillus casei DHFR. The arrangement: species or system Lacticaseibacillus casei.
Experiment [3] in a line: Selectivity index, ratio of Ki for Lactobacillus casei DHFR to Ki for human DHFR.
Experiment [4] is described as follows: Selectivity index, ratio of Ki for Escherichia coli DHFR to Ki for human DHFR.
The target of experiment [5] is Bifunctional purine biosynthesis protein ATIC (Homo sapiens, UniProt P31939). Description: Inhibition of AICAR transformylase (unknown origin).
Bifunctional purine biosynthesis protein ATIC, sequence (P31939 whole entry): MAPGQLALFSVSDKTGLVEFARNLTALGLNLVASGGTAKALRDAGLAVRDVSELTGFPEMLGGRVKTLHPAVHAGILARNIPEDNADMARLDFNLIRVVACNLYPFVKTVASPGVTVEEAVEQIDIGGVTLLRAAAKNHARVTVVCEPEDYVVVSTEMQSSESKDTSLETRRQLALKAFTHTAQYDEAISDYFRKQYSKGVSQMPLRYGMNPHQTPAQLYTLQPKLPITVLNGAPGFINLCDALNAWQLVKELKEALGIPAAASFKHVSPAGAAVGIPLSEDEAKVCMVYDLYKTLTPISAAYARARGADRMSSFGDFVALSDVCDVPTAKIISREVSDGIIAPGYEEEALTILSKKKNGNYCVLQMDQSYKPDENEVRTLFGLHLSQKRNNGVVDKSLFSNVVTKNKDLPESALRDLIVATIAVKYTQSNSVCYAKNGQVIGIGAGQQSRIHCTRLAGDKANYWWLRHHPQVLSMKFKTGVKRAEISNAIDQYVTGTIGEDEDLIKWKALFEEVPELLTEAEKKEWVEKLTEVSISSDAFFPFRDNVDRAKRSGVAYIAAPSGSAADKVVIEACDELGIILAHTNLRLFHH

By Ki is commonly meant the dissociation constant of the complex between target and ligand, obtained from inhibition or displacement. For orientation: IC50 means the midpoint of a concentration-inhibition curve. For `N=C(N)NC(=N)NCCc1ccccc1` [PHENFORMIN], on Dihydrofolate reductase, the Ki came out at 0.14 mM. In addition, the IC50 in experiment [1] stood at 0.17 mM.

On to `Nc1ccnc(N)n1` [DIAMINOPYRIMIDINE], for which the Ki in experiment [1] and in experiment [2] was 1.8 mM throughout. Further, the Ratio Ki in experiment [3] and in experiment [4] was 10 each time.

On to `O=C(O)c1cc(-c2ccc(F)cc2F)ccc1O` [DIFLUNISAL], for which the Ki at Dihydrofolate reductase came to 0.034 mM.

The molecule `O=C(O)c1cc(/N=N/c2ccc(S(=O)(=O)Nc3ccccn3)cc2)ccc1O` [SULFASALAZINE] displayed a Ki in experiment [5] of 0.022 mM.

For the molecule `COc1ccc2cc([C@@H](C)C(=O)O)ccc2c1`, the Ki on Dihydrofolate reductase was 3.4 mM.

Regarding `Nc1ccc(C(=O)N[C@@H](CCC(=O)O)C(=O)O)cc1`, the Ki at Dihydrofolate reductase came out at 0.18 mM.

In the case of `COc1ccc2cc([C@H](C)C(=O)O)ccc2c1` [NAPROXEN], the Ki on Dihydrofolate reductase worked out at 7 mM.

In the case of `CCc1cccc2c3c([nH]c12)C(CC)(CC(=O)O)OCC3` (configuration not stated) [ETODOLAC], at Dihydrofolate reductase, the Ki was determined as 1.8 mM.

Turning to `CC(C)Cc1ccc(C(C)C(=O)O)cc1` (configuration not stated) [IBUPROFEN], the Ki at Dihydrofolate reductase came out at 0.56 mM.

Take `Cc1cccc(Nc2ccccc2C(=O)O)c1C` [MEFENAMIC ACID]: at Dihydrofolate reductase, the Ki was found to be 0.072 mM.

In the case of `CN(C)C(=N)NC(=N)N` [METFORMIN], the Ki on Dihydrofolate reductase worked out at 18 mM. This molecule showed an IC50 in experiment [1] of 17.9 mM.

Turning to `O=C(O)CCC(=O)c1ccc(-c2ccccc2)cc1` [FENBUFEN], the Ki on Dihydrofolate reductase came to 0.36 mM.

For the molecule `O=C(O)CNC(=O)c1ccccc1` [HIPPURIC ACID], the Ki at Dihydrofolate reductase turned out to be 17 mM.

On to `O=C(O)Cc1ccccc1Nc1c(Cl)cccc1Cl` [DICLOFENAC], for which, on Dihydrofolate reductase, the Ki was 0.16 mM.

Consider `N[C@@H](Cc1c[nH]c2ccccc12)C(=O)O` [TRYPTOPHAN], for which, at Dihydrofolate reductase, the half-maximal inhibitory concentration (IC50) was 6.5 mM and the Ki turned out to be 2.8 mM.

With `O=C(O)c1cc(-c2ccccc2)ccc1O`, the Ki on Dihydrofolate reductase was 0.048 mM.
